Among the test systems are CAKI-1 renal; SR leukemia; NCI-H23 lung; A549 NSCLC; COLO 205 colon; LOX IMVI melanoma; SN12C renal; NCI/ADR-RES ovarian; PC-3 prostate.
Common to all, as to test: growth of human tumour cells (NCI), 48 h

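Briefly, cells in 96-well plates were exposed to five compound concentrations for 48 h, and endpoints were estimated by linear interpolation. Here, GI50 denotes the concentration required for 50% inhibition of growth. TGI marks complete inhibition of growth.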

Consider `CN(C)NC1=C([N+](=O)[O-])C=NN(c2ccccc2)C1`, for which the TGI in the assay on CAKI-1 renal turned out to be 3.64 µM; in the assay on SR leukemia it was 2.51 µM; in the assay with NCI-H23 lung, 3.42 µM; in the assay with A549 NSCLC, 3.87 µM; in the assay with COLO 205 colon, 3.27 µM; with LOX IMVI melanoma it was 3.11 µM. The TGI with SN12C renal came to 3.22 µM.
Take `N#C/C(=C\c1c(O)cc(O)cc1O)C(N)=O`: the TGI in the assay on CAKI-1 renal, in the assay with NCI-H23 lung, in the assay with A549 NSCLC, in the assay with COLO 205 colon, in the assay with LOX IMVI melanoma and with SN12C renal was above 100 µM each time.
For the molecule `CCC12C=CCN(CCc3c([nH]c4ccccc34)/C=C\1)C2` (centres undefined), the TGI with CAKI-1 renal, with SR leukemia, in the assay with NCI-H23 lung, in the assay on A549 NSCLC, with COLO 205 colon and in the assay with LOX IMVI melanoma was above 100 µM throughout. This molecule also showed a TGI with SN12C renal above 100 µM.
Consider `O=C(O)c1ccc2c(c1)C(=O)N(c1ccc(S(=O)(=O)c3ccc(N4C(=O)c5ccc(C(=O)O)cc5C4=O)cc3)cc1)C2=O`, for which the TGI with CAKI-1 renal, with SR leukemia, with NCI-H23 lung, in the assay with A549 NSCLC, in the assay on COLO 205 colon and in the assay with LOX IMVI melanoma was above 100 µM throughout. The molecule further showed a TGI in the assay with SN12C renal above 100 µM.
For the molecule `COC(=O)c1c(O)ccc(O)c1C(C(C)=O)C(C)=O`, the TGI with CAKI-1 renal, in the assay on NCI-H23 lung, in the assay on A549 NSCLC, in the assay with COLO 205 colon, in the assay with LOX IMVI melanoma and in the assay on SN12C renal was above 100 µM each time.
`Cc1ccc(N)cc1[As]=[As]c1cc(N)ccc1C` (centres undefined): the GI50 was 3.19 µM in the assay on NCI/ADR-RES ovarian; 1.5 µM in the assay with CAKI-1 renal; 0.944 µM with SR leukemia; 1.7 µM in the assay on NCI-H23 lung; 4.36 µM in the assay with A549 NSCLC; 1.33 µM with COLO 205 colon. The figures for the GI50 with LOX IMVI melanoma, in the assay on PC-3 prostate and with SN12C renal were 1.47 µM, 1.71 µM and 1.4 µM, respectively. Further, the TGI was above 100 µM with NCI/ADR-RES ovarian; 2.86 µM in the assay with CAKI-1 renal; above 25.1 µM in the assay with SR leukemia; 3.58 µM in the assay with NCI-H23 lung; 20 µM in the assay on A549 NSCLC; 2.77 µM in the assay with COLO 205 colon. For the same molecule, the TGI in the assay with LOX IMVI melanoma turned out to be 2.88 µM; in the assay with PC-3 prostate, 3.38 µM; in the assay with SN12C renal, 2.88 µM.
Regarding `COc1cccc(Nc2ncnc3cc(NC(=O)CCl)ccc23)c1`, the GI50 in the assay on CAKI-1 renal is 1.06 µM; in the assay with NCI-H23 lung, 1.61 µM; in the assay on A549 NSCLC, 1.48 µM; with PC-3 prostate it was 1.12 µM; in the assay on SN12C renal, 1.15 µM. The TGI was 2.31 µM in the assay on CAKI-1 renal; 3.92 µM in the assay with NCI-H23 lung; 3.11 µM with A549 NSCLC; 2.46 µM in the assay on PC-3 prostate; 2.44 µM with SN12C renal.
For the molecule `Cc1ccc2c(c1)-c1c3c(nn1C)-c1ccccc1SC3O2` (centres undefined), the TGI with NCI-H23 lung, in the assay with A549 NSCLC, with COLO 205 colon and with LOX IMVI melanoma was above 100 µM each time.
In the case of `O=C(/C=C/c1ccc(Cl)c(Cl)c1)c1ccccc1Cl`, the TGI in the assay with CAKI-1 renal was 24.2 µM; in the assay on SR leukemia it was 36.7 µM; with NCI-H23 lung, 26.9 µM; in the assay with A549 NSCLC, 31.6 µM; in the assay with COLO 205 colon it was 30.6 µM; with LOX IMVI melanoma, 27.7 µM. In the assay on SN12C renal, this molecule had a TGI of 30.8 µM.
As to `Cc1ccccc1NC(=O)/C(=N\NC(N)=S)C(C#N)c1ccccc1` (centres undefined), the TGI in the assay with SR leukemia, in the assay with NCI-H23 lung, in the assay with A549 NSCLC, with COLO 205 colon, with LOX IMVI melanoma and in the assay with SN12C renal was above 100 µM throughout.
As to `Cc1cccc(C)c1NC(=O)CCC(=O)NC(N)=NC#N`, the TGI in the assay on CAKI-1 renal, in the assay with SR leukemia, in the assay on NCI-H23 lung, in the assay with A549 NSCLC, with COLO 205 colon and in the assay with LOX IMVI melanoma was above 100 µM in each case. The TGI with SN12C renal was above 100 µM.
In the case of `CCOC(=O)C1=C(C)NC(=O)NC1c1ccc(OC)cc1OC` (centres undefined), the TGI in the assay on CAKI-1 renal, in the assay on SR leukemia, in the assay with NCI-H23 lung, in the assay on A549 NSCLC, with COLO 205 colon and in the assay with LOX IMVI melanoma was above 100 µM throughout. Also, the TGI in the assay on SN12C renal was above 100 µM.
Turning to `Nc1cccc2c1-c1c(cccc1[N+](=O)[O-])C2=O`, the TGI in the assay with CAKI-1 renal, in the assay on SR leukemia, in the assay on NCI-H23 lung, in the assay on A549 NSCLC, in the assay with COLO 205 colon and with LOX IMVI melanoma was above 100 µM each time. For the same molecule, the TGI in the assay with SN12C renal was above 100 µM.
Turning to `O=c1nc2sc3ccccc3c(=O)n2[nH]1`, the TGI with CAKI-1 renal, with SR leukemia, with NCI-H23 lung, in the assay with A549 NSCLC, in the assay on COLO 205 colon and in the assay with LOX IMVI melanoma was above 100 µM throughout. Moreover, the TGI in the assay on SN12C renal is above 100 µM.
`COC(=O)C1C(C(=O)O)C2(c3ccccc3)C(=O)C1(c1ccccc1)C(c1ccccc1)=C2c1ccccc1` (centres undefined): the GI50 with NCI/ADR-RES ovarian is 18.4 µM; with CAKI-1 renal, 20.2 µM; in the assay with SR leukemia it was 23.8 µM; with NCI-H23 lung, 16.5 µM; with A549 NSCLC it was 19.8 µM; in the assay with COLO 205 colon it was 18.8 µM. For the same molecule, the results for the GI50 with LOX IMVI melanoma, in the assay with PC-3 prostate and in the assay with SN12C renal were 27.8 µM, 15.2 µM and 18 µM, respectively. Also, the TGI in the assay on NCI/ADR-RES ovarian is 34 µM; in the assay on CAKI-1 renal, 40.9 µM; in the assay with SR leukemia, 56.6 µM; in the assay with NCI-H23 lung, 31.5 µM; in the assay on A549 NSCLC it was 39.1 µM; in the assay with COLO 205 colon it was 39.3 µM. Also, the values for the TGI with LOX IMVI melanoma, in the assay with PC-3 prostate and with SN12C renal were 89.7 µM, 32.5 µM and 38.9 µM, respectively.

Values taken from PubChem BioAssay (NCI).
